According to US20250195530A1, “POLQ INHIBITORS” (ASTRAZENECA AB, priority 2022, published 2025):
Read-outs that look alike come from different tables or passages of the source.

Tested on: DLD-1 BRCA2−/− cells
Assay: Homologous recombination synthetic lethal inhibition of proliferation, DLD-1 BRCA2-/- (Cell Titre Glo 3D)
Format: cell-based
Conditions: for IC50: Homo sapiens, read-out: POLQ PD Prolif Lumin (converted); for POLQ PD Prolif Lumin: DLD-1 BRCA2-/- proliferation
In short: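 Cells are seeded in RPMI 1640 (phenol red free, 10% FBS, GlutaMAX) onto pre-dosed compound (10 μM to 0.51 nM, three-fold). Plates are incubated at 37 °C, and medium plus compound are refreshed on day 6. Viability is read by CellTiter-Glo 3D at day 7 (DLD-1) or day 12 (DLD-1 BRCA2−/−), and the IC50 is fitted.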

[1] = DLD-1, DLD-1 BRCA2-/- proliferation, column head only partly shown
[2] = DLD-1, first proliferation column (c5), taken as DLD-1 BRCA2-/-

Row | SMILES | IC50 [1] | further results
1 | Cc1ccnc(Cn2c(-c3ccc(C(=O)NCCCO)cc3Cl)nc3c(OC4(C)CC4)ncnc32)c1 [Example T217, 3-chloro-N-(3-hydroxypropyl)-4-(6-(1-methylcyclopropoxy)-9-((4-methylpyridin-2-yl)methyl)-9H-purin-8-yl)benzamide] | 1000 nM | 
2 | Cc1ccnc(Cn2c(-c3ccc(C(=O)NC[C@H](C)O)cc3Cl)nc3c(OC4(C)CC4)ncnc32)c1 [Example T218, (S)-3-chloro-N-(2-hydroxypropyl)-4-(6-(1-methylcyclopropoxy)-9-((4-methylpyridin-2-yl)methyl)-9H-purin-8-yl)benzamide] | 631 nM | 
3 | CC(=O)NCCOc1ccc(-c2nc3c(OC4(C)CC4)ncnc3n2Cc2cc(C)ccn2)c(Cl)c1 [Example T219, N-(2-(3-chloro-4-(6-(1-methylcyclopropoxy)-9-((4-methylpyridin-2-yl)methyl)-9H-purin-8-yl)phenoxy)ethyl)acetamide] | 251 nM | 
4 | Cc1ccnc(Cn2c(-c3ccc(C(=O)N(C)CCO)cc3Cl)nc3c(OC4(C)CC4)ncnc32)c1 [Example T220, 3-chloro-N-(2-hydroxyethyl)-N-methyl-4-(6-(1-methylcyclopropoxy)-9-((4-methylpyridin-2-yl)methyl)-9H-purin-8-yl)benzamide] | 3160 nM | 
5 | CCNC(=O)COc1ccc(-c2nc3c(OC4(C)CC4)ncnc3n2Cc2cc(C)ccn2)c(Cl)c1 [Example T221, 2-(3-chloro-4-(6-(1-methylcyclopropoxy)-9-((4-methylpyridin-2-yl)methyl)-9H-purin-8-yl)phenoxy)-N-ethylacetamide] | 316 nM | 
6 | COC(=O)NCCc1ccc(-c2nc3c(OC4(C)CC4)ncnc3n2Cc2cc(C)ccn2)c(Cl)c1 [Example T222, methyl (3-chloro-4-(6-(1-methylcyclopropoxy)-9-((4-methylpyridin-2-yl)methyl)-9H-purin-8-yl)phenethyl)carbamate] | 200 nM | 
7 | Cc1ccnc(Cn2c(-c3ccc(CCNC(=O)CO)cc3Cl)nc3c(OC4(C)CC4)ncnc32)c1 [Example T223, N-(3-chloro-4-(6-(1-methylcyclopropoxy)-9-((4-methylpyridin-2-yl)methyl)-9H-purin-8-yl)phenethyl)-2-hydroxyacetamide] | 501 nM | 
8 | Cc1ccnc(Cn2c(-c3ccc(CC(=O)NCCO)cc3Cl)nc3c(OC4(C)CC4)ncnc32)c1 [Example T224, 2-(3-chloro-4-(6-(1-methylcyclopropoxy)-9-((4-methylpyridin-2-yl)methyl)-9H-purin-8-yl)phenyl)-N-(2-hydroxyethyl)acetamide] | 1000 nM | 
9 | Cc1ccnc(Cn2c(-c3ccc(OCC(=O)NCCO)cc3Cl)nc3c(OC4(C)CC4)ncnc32)c1 [Example T226, 2-(3-chloro-4-(6-(1-methylcyclopropoxy)-9-((4-methylpyridin-2-yl)methyl)-9H-purin-8-yl)phenoxy)-N-(2-hydroxyethyl)acetamide] | 158 nM | 
10 | Cc1ccnc(Cn2c(-c3ccc(OCCNC(=O)CO)cc3Cl)nc3c(OC4(C)CC4)ncnc32)c1 [Example T227, N-(2-(3-chloro-4-(6-(1-methylcyclopropoxy)-9-((4-methylpyridin-2-yl)methyl)-9H-purin-8-yl)phenoxy)ethyl)-2-hydroxyacetamide] | 316 nM | 
11 | COC(=O)NCCOc1ccc(-c2nc3c(OC4(C)CC4)ncnc3n2Cc2cc(C)ccn2)c(Cl)c1 [Example T228, methyl (2-(3-chloro-4-(6-(1-methylcyclopropoxy)-9-((4-methylpyridin-2-yl)methyl)-9H-purin-8-yl)phenoxy)ethyl)carbamate] | 126 nM | 
12 | Cc1ccnc(Cn2c(-c3ccc(OCCOCCO)cc3Cl)nc3c(OC4(C)CC4)ncnc32)c1 [Example T233, 2-(2-(3-chloro-4-(6-(1-methylcyclopropoxy)-9-((4-methylpyridin-2-yl)methyl)-9H-purin-8-yl)phenoxy)ethoxy)ethan-1-ol] | 158 nM | 
13 | Cc1ccnc(Cn2c(-c3ccc(N4CCNCC4)cc3Cl)nc3c(OC4(C)CC4)ncnc32)c1 [Example T235, 8-(2-chloro-4-(piperazin-1-yl)phenyl)-6-(1-methylcyclopropoxy)-9-((4-methylpyridin-2-yl)methyl)-9H-purine] | 398 nM | 
14 | Cc1cnc(Cn2c(-c3ccc(OCCN4CC[C@@H](O)C4)cc3Cl)nc3c(OC4(C)CC4)ncnc32)s1 [Example T245, (R)-1-(2-(3-chloro-4-(6-(1-methylcyclopropoxy)-9-((5-methylthiazol-2-yl)methyl)-9H-purin-8-yl)phenoxy)ethyl)pyrrolidin-3-ol] | 631 nM | 
15 | Cc1ccnc(Cn2c(-c3ccc(NCCN(C)C)cc3Cl)nc3c(OC4(C)CC4)ncnc32)c1 [Example T247, N1-(3-chloro-4-(6-(1-methylcyclopropoxy)-9-((4-methylpyridin-2-yl)methyl)-9H-purin-8-yl)phenyl)-N2,N2-dimethylethane-1,2-diamine] | 501 nM | 
16 | C/C(=C\COc1ccc(-c2nc3c(OC4(C)CC4)ncnc3n2Cc2cccc(Cl)c2)c(Cl)c1)C(=O)O [Example T255, (E)-4-(3-chloro-4-(9-(3-chlorobenzyl)-6-(1-methylcyclopropoxy)-9H-purin-8-yl)phenoxy)-2-methylbut-2-enoic acid] | 316 nM | 
17 | CC1(Oc2ncnc3c2nc(-c2cccc(O[C@H]4C[C@H](C(=O)O)C4)c2Cl)n3Cc2cccc(Cl)c2)CC1 [Example T256, (1r,3r)-3-(2-chloro-3-(9-(3-chlorobenzyl)-6-(1-methylcyclopropoxy)-9H-purin-8-yl)phenoxy)cyclobutane-1-carboxylic acid] |  | POLQ PD Prolif Lumin (column head only partly shown): 6.9
18 | CC1(Oc2ncnc3c2nc(-c2cccc(O[C@H]4C[C@@H](C(=O)O)C4)c2Cl)n3Cc2cccc(Cl)c2)CC1 [Example T257, (1s,3s)-3-(2-chloro-3-(9-(3-chlorobenzyl)-6-(1-methylcyclopropoxy)-9H-purin-8-yl)phenoxy)cyclobutane-1-carboxylic acid] |  | POLQ PD Prolif Lumin (column head only partly shown): 7
19 | C#CCNC(=O)COc1ccc(-c2nc3c(OC4(C)CC4)ncnc3n2Cc2cc(C)ccn2)c(Cl)c1 [Example T266, 2-(3-chloro-4-(6-(1-methylcyclopropoxy)-9-((4-methylpyridin-2-yl)methyl)-9H-purin-8-yl)phenoxy)-N-(prop-2-yn-1-yl)acetamide] | 158 nM | 
20 | Cc1ccnc(Cn2c(-c3ccc(C(=O)NC4CC(F)C4)cc3Cl)nc3c(OC4(C)CC4)ncnc32)c1 (stereo not drawn) [Example T280, 3-chloro-N-(3-fluorocyclobutyl)-4-(6-(1-methylcyclopropoxy)-9-((4-methylpyridin-2-yl)methyl)-9H-purin-8-yl)benzamide] | 794 nM | 
21 | Cc1ccnc(Cn2c(-c3ccc(C(=O)N4CC[C@H](F)C4)cc3Cl)nc3c(OC4(C)CC4)ncnc32)c1 [Example T281, (S)-(3-chloro-4-(6-(1-methylcyclopropoxy)-9-((4-methylpyridin-2-yl)methyl)-9H-purin-8-yl)phenyl)(3-fluoropyrrolidin-1-yl)methanone] | 794 nM | 
22 | Cc1ccnc(Cn2c(-c3ccc(C(=O)N4C[C@@H](O)[C@H](F)C4)cc3Cl)nc3c(OC4(C)CC4)ncnc32)c1 [Example T282, (3-chloro-4-(6-(1-methylcyclopropoxy)-9-((4-methylpyridin-2-yl)methyl)-9H-purin-8-yl)phenyl)((3R,4R)-3-fluoro-4-hydroxypyrrolidin-1-yl)methanone] | 2510 nM | 
23 | Cc1ccnc(Cn2c(-c3ccc(OCC(=O)N4CC(F)C4)cc3Cl)nc3c(OC4(C)CC4)ncnc32)c1 [Example T283, 2-(3-chloro-4-(6-(1-methylcyclopropoxy)-9-((4-methylpyridin-2-yl)methyl)-9H-purin-8-yl)phenoxy)-1-(3-fluoroazetidin-1-yl)ethan-1-one] | 158 nM | 
24 | Cc1ccnc(Cn2c(-c3ccc(C(=O)N(C)CCC#N)cc3Cl)nc3c(OC4(C)CC4)ncnc32)c1 [Example T286, 3-chloro-N-(2-cyanoethyl)-N-methyl-4-(6-(1-methylcyclopropoxy)-9-((4-methylpyridin-2-yl)methyl)-9H-purin-8-yl)benzamide] | 1260 nM | 
25 | Cc1ccnc(Cn2c(-c3ccc(C(=O)N4CCNC(=O)C4)cc3Cl)nc3c(OC4(C)CC4)ncnc32)c1 [Example T287, 4-(3-chloro-4-(6-(1-methylcyclopropoxy)-9-((4-methylpyridin-2-yl)methyl)-9H-purin-8-yl)benzoyl)piperazin-2-one] | > 7940 nM | 
26 | CC1(Oc2ncnc3c2nc(-c2ccc(CCCCC(=O)O)cc2Cl)n3Cc2cccc(Cl)c2)CC1 [Example T289, 5-(3-chloro-4-(9-(3-chlorobenzyl)-6-(1-methylcyclopropoxy)-9H-purin-8-yl)phenyl)pentanoic acid] | 126 nM | 
27 | C[C@H](CCOc1cccc(-c2nc3c(OC4(C)CC4)ncnc3n2Cc2cccc(Cl)c2)c1Cl)C(=O)O [Example T297, (R)-4-(2-chloro-3-(9-(3-chlorobenzyl)-6-(1-methylcyclopropoxy)-9H-purin-8-yl)phenoxy)-2-methylbutanoic acid] | 63.1 nM | 
28 | CC1(Oc2ncnc3c2nc(-c2cccc(OCC(C)(C)C(=O)O)c2Cl)n3Cc2cccc(Cl)c2)CC1 [Example T298, 3-(2-chloro-3-(9-(3-chlorobenzyl)-6-(1-methylcyclopropoxy)-9H-purin-8-yl)phenoxy)-2,2-dimethylpropanoic acid] |  | IC50 [2]: 631 nM
29 | CC1(Oc2ncnc3c2nc(-c2ccc(OCC[C@@](C)(O)C(=O)O)cc2Cl)n3Cc2cccc(Cl)c2)CC1 [Example T301, (R)-4-(3-chloro-4-(9-(3-chlorobenzyl)-6-(1-methylcyclopropoxy)-9H-purin-8-yl)phenoxy)-2-hydroxy-2-methylbutanoic acid] |  | IC50 [2]: 2510 nM
30 | CC1(Oc2ncnc3c2nc(-c2ccc(OCCOCCC(=O)O)cc2Cl)n3Cc2cccc(Cl)c2)CC1 [Example T303, 3-(2-(3-chloro-4-(9-(3-chlorobenzyl)-6-(1-methylcyclopropoxy)-9H-purin-8-yl)phenoxy)ethoxy)propanoic acid] |  | IC50 [2]: 126 nM
